Test results: ChEMBL document CHEMBL1914442, “Metabolism-directed design of oxetane-containing arylsulfonamide derivatives as γ-secretase inhibitors” (J Med Chem, 2011)

Experiments:
[1] = physchem; settings: octanol/water, pH 7.4
[2] = Apparent permeability from apical to basolateral side of dog RRCK cells by transwell assay; format: ADME, cell-based, Canis lupus familiaris, MDCKII-LE; settings: MDCK
[3] = Drug uptake in wild-type mouse 129/sve cerebrospinal fluid at 100 mg/kg, sc administered as a single dose measured 4 hr post-dose by LC-MS analysis; format: ADME, organism-based; set-up: dose 100 mg/kg, route subcutaneous; settings: read-out: Drug uptake
[4] = Oral bioavailability in mouse; format: ADME, organism-based; settings: in vivo
[5] = Oral bioavailability in rat; format: ADME, organism-based; settings: in vivo
[6] = Drug uptake in wild-type mouse 129/sve cerebrospinal fluid at 100 mg/kg, sc administered as a single dose measured 1 hr post-dose by LC-MS analysis; format: ADME, organism-based; set-up: dose 100 mg/kg, route subcutaneous; settings: read-out: Drug uptake

SMILES | logD [1] | Papp A→B [2] [×10⁻⁶ cm/s] | concentration at 4 h [3] [nM] | bioavailability [4] [%] | bioavailability [5] [%] | concentration at 1 h [6] [nM]
NC(=O)[C@@H](CCC(F)(F)F)N(CC1CCOCC1)S(=O)(=O)c1ccc(Cl)cc1 | 3.5 | 26.3 | – | – | – | –
CC1(C)CO[C@@H]1CN([C@H](CCC(F)(F)F)C(N)=O)S(=O)(=O)c1ccc(Cl)cc1 | 3.9 | 22.3 | – | – | – | –
NC(=O)[C@@H](CCC(F)(F)F)N(C[C@H]1CCOC1)S(=O)(=O)c1ccc(Cl)cc1 | 2.8 | 21.7 | – | – | – | –
NC(=O)[C@@H](CCC(F)(F)F)N(C[C@H]1COCCO1)S(=O)(=O)c1ccc(Cl)cc1 | 2.75 | 20.6 | – | – | – | –
NC(=O)[C@@H](CCC(F)(F)F)N(C[C@@H]1CCO1)S(=O)(=O)c1ccc(Cl)cc1 | 2.6 | 34.9 | 59.6 | < 5 | < 5 | 447
C[C@@H]1C[C@@H](CN([C@H](CCC(F)(F)F)C(N)=O)S(=O)(=O)c2ccc(Cl)cc2)O1 | – | 21.2 | – | – | – | –
NC(=O)[C@@H](CCC(F)(F)F)N(C[C@H]1CCO1)S(=O)(=O)c1ccc(Cl)cc1 | 2.6 | 28.7 | – | – | – | –
NC(=O)[C@@H](CCC(F)(F)F)N(CC1CCCC1)S(=O)(=O)c1ccc(Cl)cc1 | 5.15 | 6.01 | – | – | – | –
NC(=O)[C@@H](CCC(F)(F)F)N(C[C@@H]1CCOC1)S(=O)(=O)c1ccc(Cl)cc1 | 2.8 | 20.5 | – | – | – | –
CC1(C)C[C@H](CN([C@H](CCC(F)(F)F)C(N)=O)S(=O)(=O)c2ccc(Cl)cc2)O1 | 3.8 | 18.1 | – | – | – | –
NC(=O)[C@@H](CCC(F)(F)F)N(C[C@@H]1COCCO1)S(=O)(=O)c1ccc(Cl)cc1 | 2.75 | 27.3 | – | – | – | –
C[C@H]1C[C@@H](CN([C@H](CCC(F)(F)F)C(N)=O)S(=O)(=O)c2ccc(Cl)cc2)O1 | – | 21.8 | – | – | – | –
NC(=O)[C@@H](CCC(F)(F)F)N(C[C@H]1CCCOC1)S(=O)(=O)c1ccc(Cl)cc1 | 3.6 | 18.2 | – | – | – | –
NC(=O)[C@@H](CCC(F)(F)F)N(C[C@H]1CCCO1)S(=O)(=O)c1ccc(Cl)cc1 | 3.6 | 19.1 | – | – | – | –
NC(=O)[C@@H](CCC(F)(F)F)N(C[C@@H]1CCCCO1)S(=O)(=O)c1ccc(Cl)cc1 | 4.3 | 15.4 | – | – | – | –
NC(=O)[C@@H](CCC(F)(F)F)N(CC1CCC1)S(=O)(=O)c1ccc(Cl)cc1 | – | 11.1 | – | – | – | –
NC(=O)[C@@H](CCC(F)(F)F)N(C[C@@H]1CCCOC1)S(=O)(=O)c1ccc(Cl)cc1 | 3.7 | 18.4 | – | – | – | –
CC1(C)C[C@@H](CN([C@H](CCC(F)(F)F)C(N)=O)S(=O)(=O)c2ccc(Cl)cc2)O1 | 3.8 | 14.9 | – | < 5 | < 5 | –
NC(=O)[C@@H](CCC(F)(F)F)N(CC1COC1)S(=O)(=O)c1ccc(Cl)cc1 | 2.5 | 25.4 | – | < 5 | < 5 | –
NC(=O)[C@@H](CCC(F)(F)F)N(C[C@H]1CCCCO1)S(=O)(=O)c1ccc(Cl)cc1 | 4.3 | 13.4 | – | – | – | –
NC(=O)[C@@H](CCC(F)(F)F)N(CC1CCCCC1)S(=O)(=O)c1ccc(Cl)cc1 | – | 4.42 | – | – | – | –
CC1(C)CO[C@H]1CN([C@H](CCC(F)(F)F)C(N)=O)S(=O)(=O)c1ccc(Cl)cc1 | 3.8 | 26.4 | – | – | – | –
NC(=O)[C@@H](CCC(F)(F)F)N(C[C@@H]1CCCO1)S(=O)(=O)c1ccc(Cl)cc1 | 3.5 | 22.4 | – | – | – | –
